Data from patent publication US6716837B1, “Heterocyclic compounds for the treatment of migraine” (NPS Allelix Biopharmaceuticals, Inc., priority 1999, dated 2004).

target: T1, 5-HT1D receptor (Homo sapiens, UniProt P28221); experiment: 5-HT1D receptor binding, inhibition of 3H-serotonin binding; details: 100 nM test compound; 3H-serotonin 1 nM; membranes from recombinant cells; 60 minute incubation at 22° C.; read-out: percent inhibition of binding of the radio ligand at the 5-HT1D receptor
T1 construct: expressed in transfected cells
Procedure: Selected compounds of the previous examples, as well as reference compounds, were evaluated for binding affinity using cell types receptive specifically to 5-HT1D and 5-HT1B ligands. The assay protocol generally entailed the incubation of membranes prepared from cells expressing the 5-HT1D or 5-HT1B subtype of 5-HT receptors with ^3H-serotonin (1 nM for 5-HT1D and 2.5 nM for 5-HT1B). Specific concentrations of the test compound were incubated with the radio ligand and the membrane homogenates prepared from the recombinant cells. After a 60 minute incubation at 22° C., the incubation was terminated by vacuum filtration. The filters were washed with buffer and counted for radioactivity using liquid scintillation spectroscopy. The affinity of the test compound for the 5-HT1D receptor is expressed as the amount (in percent) of binding of the radio ligand that is inhibited in the presence of 100 nM of test compound. A greater percent inhibition indicates greater affinity for the 5-HT1D receptor.

T1 sequence (P28221 whole entry): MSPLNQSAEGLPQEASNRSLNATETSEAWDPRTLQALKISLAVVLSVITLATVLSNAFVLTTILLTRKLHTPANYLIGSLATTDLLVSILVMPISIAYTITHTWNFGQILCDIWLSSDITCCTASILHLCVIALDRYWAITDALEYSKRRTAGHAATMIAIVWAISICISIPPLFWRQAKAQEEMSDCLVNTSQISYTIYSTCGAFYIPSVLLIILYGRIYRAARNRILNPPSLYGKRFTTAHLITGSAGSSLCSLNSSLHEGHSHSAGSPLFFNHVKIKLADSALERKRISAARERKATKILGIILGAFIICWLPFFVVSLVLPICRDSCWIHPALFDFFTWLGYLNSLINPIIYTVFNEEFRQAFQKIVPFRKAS

Row | SMILES | inhibition at 0.1 µM [%]
1 | CN1CC=C(c2ccc3ccn(-c4nccs4)c3c2)CC1 [Example 19i, 6-(N-Methyl-1,2,5,6-tetrahydropyridin-4-yl)-1-(2-thiazolyl)-indole] | > 50
2 | CC(C)n1ccc2ccc(CCN(C)C)cc21 [Example 2, 6-(2-(N,N-Dimethylamino)ethyl)-1-isopropyl-indole] | > 90
3 | Brc1ccc2ccn(C3CCNCC3)c2c1 [Example 10c, 6-Bromo-1-(4-piperidinyl)-indole] | > 50
4 | CN1CC=C(c2ccc3ccn(-c4ccc(F)cc4)c3c2)CC1 [Example 19, 1-(4-Fluorophenyl)-6-(N-methyl-1,2,5,6-tetrahydropyridin-4-yl)-indole] | > 75
5 | CN1CC=C(c2ccc3ccn(-c4ccsc4)c3c2)CC1 [Example 19c, 6-(N-Methyl-1,2,5,6-tetrahydropyridin-4-yl)-1-(3-thienyl)-indole] | > 75
6 | CN(C)CCc1ccc2ccn(-c3cccnc3)c2c1 [Example 19f, 6-(2-Dimethylaminoethyl)-1-(3-pyridinyl)-indole] | > 90
7 | CN(C)CCc1ccc2ccn(C3CCOCC3)c2c1 [Example 11b, 6-(2-Dimethylaminoethyl)-1-(tetrahydropyran4-yl)-indole] | > 90
8 | CN1CC=C(c2ccc3ccn(-c4cccnc4)c3c2)CC1 [Example 19d, 6-(N-Methyl-1,2,5,6-tetrahydropyridin-4-yl)-1-(3-pyridyl)-indole] | > 75
9 | CC(C)n1ncc2ccc(CCN(C)C)cc21 [Example 14, 6-(2-(N,N-Dimethylamino)ethyl)-1-isopropyl-1H-indazole] | > 90
10 | CC(C)n1ccc2ccc(C3=CCN(C)CC3)cc21 [Example 16c, 6-[N-Methyl-1,2,5,6-tetrahydropyridin-4-yl]-1-isopropyl-indole] | > 50

target: T1, 5-HT1D receptor; experiment: Functional assay: inhibition of forskolin-stimulated adenyl cyclase (cAMP) in CHO cells; assay type: cell-based; details: CHO cells stably expressing the 5-HT1D receptor; test compound at 100 nM and 10 μM
Procedure: The 5HT1D and 5HT1B receptor subtypes respond to serotonin and other agonists by reducing adenyl cyclase mediated production of cyclic AMP. Particular test compounds were assayed for their ability to inhibit adenyl cyclase activity using the procedure described below. Forskolin was used to elevate the basal adenyl cyclase activity.
Compounds acting as antagonists at the 5HT1D and 5HT1B receptor subtypes will antagonize the agonist effect of serotonin and thus, will block the serotonin-induced inhibition of forskolin-stimulated adenyl cyclase activity. […]
The culture media of each well was removed, and the wells were washed once with serum free media. […] Basal adenyl cyclase activity was determined from wells with only SFM+IBMX media added.
The cells were then incubated at 37° C. for 30 minutes in a CO2 incubator. […] The pellets were discarded and the supernatants were stored at 4° C. until assayed for cAMP concentration. cAMP content for each extract was determined in duplicate by EIA (enzyme-immunoassay) using the Amersham Biotrak cAMP EIA kit (Amersham RPN 225).
Total inhibition (Io) of forskolin-stimulated adenyl cyclase activity by serotonin was determined as the difference in concentration of cAMP in the forskolin-treated cells (Cf) and serotonin-forskolin treated cells (Cd). […]

Row | SMILES | effect on forskolin stimulated production of cAMP (agonist activity)
11 | CC(C)n1ccc2ccc(CCN(C)C)cc21 [Example 2, 6-(2-(N,N-Dimethylamino)ethyl)-1-isopropyl-indole] | caused a decrease in the forskolin stimulated production of cAMP
